Results reported in ChEMBL document CHEMBL4007407, “Carbonic anhydrases from Trypanosoma and Leishmania as anti-protozoan drug targets” (Bioorg Med Chem, 2017).

Tests used:
[1] = Inhibition of Trypanosoma cruzi hexokinase
[2] = Inhibition of Trypanosoma cruzi glucose-6-phosphate dehydrogenase
[3] = Mixed-type inhibition of Trypanosoma cruzi epimastigotes hexokinase using D-glucose as substrate in presence of ATP by Lineweaver-Burk Plot analysis
[4] = test system: Leishmania; assay: Antileishmanial activity against Leishmania in visceral leishmaniasis patient assessed as cure incidents at 10 to 15 mg/kg, iv administered as single dose as lipid formulations relative to control; type: functional
[5] = Inhibition of Leishmania amazonensis squalene synthase
[6] = Inhibition of Leishmania major trypanothione reductase
[7] = Inhibition of Trypanosoma cruzi SUMO-tagged glucose-6-phosphate dehydrogenase expressed in Escherichia coli BL21(DE3) using glucose-6-phosphate as substrate by diaphorase enzyme coupled fluorescence assay
[8] = Inhibition of Trypanosoma cruzi strain CL Brener N-terminal His6-tagged glucokinase expressed in Escherichia coli using D-glucose as substrate in presence of ATP by colorimetric assay
[9] = test system: Trypanosoma cruzi; assay: Antitrypanosomal activity against Trypanosoma cruzi Tulahuen amastigotes expressing beta-galactosidase gene infected in mouse NIH/3T3 cells after 4 days; type: functional, cell-based; conditions: NIH3T3, 96 h
[10] = Inhibition of Trypanosoma cruzi strain CL Brener N-terminal His6-tagged glucokinase expressed in Escherichia coli using D-glucose as substrate in presence of ATP by Lineweaver-Burk Plot analysis
[11] = test system: Leishmania; assay: Antileishmanial activity against Leishmania in mucocutaneous leishmaniasis patient assessed as cure incidents at 4 mg/kg relative to control; type: functional
[12] = Inhibition of Trypanosoma cruzi N-terminal His-tagged full-length glucose-6-phosphate dehydrogenase expressed in Escherichia coli BL21(DE3) using glucose-6-phosphate as substrate in presence of NADP+ by spectrophotometric method

## CCn1c2ccccc2c2cc(NC(P(=O)(O)O)P(=O)(O)O)ccc21
[1]
  IC50: 6.4 µM
  Ki: 2.8 µM

## Cc1ccc(Nc2ncc3c(n2)CCCC3=O)cc1
[2]
  IC50: 0.48 µM

## O=P(O)(O)C(O)(Cc1ccncc1)P(=O)(O)O
[3]
  Ki: 4.3 µM

## C[C@@H]1[C@H](O)[C@@H](C)/C=C/C=C/C=C/C=C/C=C/C=C/C=C/[C@H](O[C@@H]2O[C@H](C)[C@@H](O)[C@H](N)[C@@H]2O)C[C@@H]2O[C@](O)(C[C@@H](O)C[C@@H](O)[C@H](O)CC[C@@H](O)C[C@@H](O)CC(=O)O[C@H]1C)C[C@H](O)[C@H]2C(=O)O [AMPHOTERICIN B]
[4]
  Activity: 93.3%

## CO[C@H]1CN(c2ccc(C#C[C@@]3(O)CN4CCC3CC4)c(Cc3ccccc3)n2)C[C@H]1O
[5]
  IC50: 6.7 µM
  Ki: 0.0052 µM

## CCCCCCCn1cnc2sc(C(N)=O)c(C)c2c1=O
[2]
  IC50: 4.9 µM

## O=C(CCl)N1c2ccccc2Oc2ccc(Cl)cc21
[6]
  IC50: 7.6 µM

## COCCCOc1ccc(C#C[C@@]2(O)CN3CCC2CC3)c(Cc2ccccc2)n1
[5]
  IC50: 0.9 µM
  Ki: 0.0012 µM

## C[C@]12CC[C@H](O)CC1=CC[C@@H]1[C@@H]2CC[C@]2(C)C(=O)[C@H](Br)C[C@@H]12
[7]
  IC50: 0.216 µM

## C[C@]12CC[C@H](O)C[C@@H]1CC[C@@H]1[C@@H]2CC[C@]2(C)C(=O)[C@H](Br)C[C@@H]12 [16.ALPHA.-BROMOEPIANDROSTERONE]
[7]
  IC50: 0.086 µM

## O=C(CCl)N1c2ccccc2Sc2ccccc21
[6]
  IC50: 9.3 µM

## O=C(CCl)N1c2ccccc2COc2ccc(Cl)cc21
[6]
  IC50: 7.2 µM

## O=P(O)(O)C(Nc1cccc(Br)c1)P(=O)(O)O
[3]
  Ki: 1.2 µM

## O=C(N[C@@H]1[C@@H](O)[C@H](O)[C@@H](CO)O[C@@H]1O)OCc1ccccc1
[8]
  IC50: 48.7 µM
[9]
  IC50: 16.1 µM
[10]
  Ki: 0.71 µM

## N=C(N)c1ccc(OCCCCCOc2ccc(C(=N)N)cc2)cc1 [PENTAMIDINE]
[11]
  Activity: 90 - 95%

## C[C@]12CC[C@H](O)C[C@@H]1CC[C@@H]1[C@@H]2CC[C@]2(C)C(=O)CC[C@@H]12 [EPIANDROSTERONE]
[12]
  IC50: 3 µM
  Ki: 3.2 µM

## O=C(N[C@@H]1[C@@H](O)[C@H](O)[C@@H](CO)O[C@@H]1O)c1ccccc1
[8]
  IC50: 16.1 µM
[9]
  IC50: 48.7 µM
[10]
  Ki: 32 µM
